Here are results for 39 compounds from PubChem BioAssay AID1259246 (Broad Institute, 2017).

Inconclusive results are not listed. Calls of active or inactive are those of the source.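 How the source made its calls: active means valid dose-response fit whose half-maximal growth-inhibiting concentration is at or below a set limit above the top tested dose; inconclusive means flat fit with effect between 30 and 70%, or poor fit; inactive means half-maximal concentration above a set limit.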

One assay in a line: antibacterial activity against Clostridioides difficile – 10-point retest, dose response (AID 1259246). Particulars: Clostridioides difficile clinical isolate growth, OD600, 24 h; at 60 µM (top of the series).
Take `O=C(C[C@H]1C[C@@H]2c3cc(NC(=O)C4CCC4)ccc3O[C@@H]2[C@@H](CO)O1)NCc1ccccc1`: the activity change, negative = inhibition is 6.59% (inactive).
`N#C[C@@H]1[C@@H](c2ccc(C#Cc3cccnc3)cc2)[C@@H](CO)N1C(=O)C1CCCCC1`: the activity change, negative = inhibition was 1.92% (inactive).

Staying with this assay, now noted: Clostridioides difficile clinical isolate growth, OD600, 24 h; at 120 µM (top of the series).
As to `C[C@@H]1CN([C@H](C)CO)C(=O)c2cc(NC(=O)Nc3ccc4c(c3)OCO4)ccc2O[C@@H](C)CCCCO[C@H]1CN(C)S(=O)(=O)c1ccc(F)cc1`, the activity change, negative = inhibition was 13.1% (inactive).
On the same count and under the same terms, for `C[C@H](CO)N1C[C@H](C)[C@H](CN(C)C(=O)NC2CCCCC2)Oc2c(NC(=O)Nc3ccc(C(F)(F)F)cc3)cccc2C1=O` the value was 32.2% (inactive); for `CC(C)CC#Cc1ccc2c(c1)O[C@H](CN(C)Cc1ccccc1)[C@@H](C)CN([C@@H](C)CO)S2(=O)=O`, 35.7% (inactive).
With `C[C@@H]1CCCCO[C@H](CN(C)S(=O)(=O)c2ccc(F)cc2)[C@@H](C)CN([C@H](C)CO)C(=O)c2cc(NC(=O)Nc3cccc4ccccc34)ccc2O1`, the activity change, negative = inhibition is 7.93% (inactive).
On the same count and under the same terms, for `C[C@@H]1CCCCO[C@H](CN(C)S(=O)(=O)c2ccc(F)cc2)[C@@H](C)CN([C@@H](C)CO)C(=O)c2cc(NC(=O)Nc3cccc4ccccc34)ccc2O1` the value was 19.1% (inactive).
Same read-out and setting: for `C[C@@H]1CN([C@H](C)CO)C(=O)c2cc(NC(=O)c3ccccc3)ccc2O[C@@H](C)CCCCO[C@H]1CN(C)S(=O)(=O)c1ccc(F)cc1` the value was 10.1% (inactive); for `C[C@@H]1CN([C@H](C)CO)S(=O)(=O)c2ccc(Br)cc2O[C@H]1CN(C)Cc1cccnc1`, 0.001% (inactive).
The same measure, in the same setting: to `CNC[C@H]1Oc2ccc(N)cc2CC(=O)N([C@@H](C)CO)C[C@H]1C` belongs -3.55% (inactive); to `C[C@H](CO)N1C[C@H](C)[C@@H](CN(C)C(=O)NC2CCCCC2)Oc2c(NC(=O)Nc3ccc(C(F)(F)F)cc3)cccc2C1=O`, 28.9% (inactive).
For the compound `C[C@@H]1CN([C@@H](C)CO)C(=O)Cc2cc(NC(=O)C3CC3)ccc2O[C@@H]1CN(C)Cc1ccc(Oc2ccccc2)cc1`, the activity change, negative = inhibition is 21.3% (inactive).
The same measure, in the same setting: to `C[C@@H]1CN([C@H](C)CO)C(=O)c2cccc(NC(=O)Nc3ccc(C(F)(F)F)cc3)c2O[C@@H]1CN(C)C(=O)Nc1ccc(F)cc1` belongs -4.05% (inactive).
Turning to `C[C@@H]1CN([C@H](C)CO)C(=O)c2cc(NC(=O)Nc3cccc4ccccc34)ccc2O[C@@H](C)CCCCO[C@H]1CN(C)S(=O)(=O)c1ccc(F)cc1`, the activity change, negative = inhibition is 38% (inactive).
On to `COc1ccc(S(=O)(=O)N(C)C[C@@H]2Oc3ccc(NC(=O)CCCN(C)C)cc3CC(=O)N([C@@H](C)CO)C[C@H]2C)cc1`, for which the activity change, negative = inhibition is -5.12% (inactive).
Same read-out and setting: to `C[C@H]1CN([C@@H](C)CO)S(=O)(=O)c2ccc(C3=CCCCC3)cc2O[C@@H]1CN(C)Cc1cccnc1` belongs 13.2% (inactive); to `C[C@@H]1CN([C@@H](C)CO)C(=O)Cc2cc(NC(=O)c3ccncc3)ccc2O[C@@H]1CN(C)S(=O)(=O)c1cn(C)cn1`, 37.2% (inactive); to `CO[C@H]1CN(C)C(=O)c2ccc(NC(=O)c3nc4ccccc4s3)cc2OC[C@H](C)NC[C@@H]1C`, -6.99% (inactive).
On the same count and under the same terms, for `CNC[C@H]1Oc2cc(C#CCC(C)C)ccc2S(=O)(=O)N([C@H](C)CO)C[C@@H]1C` the value was 19.7% (inactive).
On the same count and under the same terms, for `CO[C@@H]1CN(C)C(=O)c2ccc(NC(=O)c3nc4ccccc4s3)cc2OC[C@@H](C)NC[C@H]1C` the value was -7.73% (inactive); for `COc1ccc(CNC(=O)C[C@H]2C[C@@H]3c4cc(NC(=O)NC5CCCC5)ccc4O[C@@H]3[C@@H](CO)O2)cc1`, 6.58% (inactive); for `CC(C)CC#Cc1ccc2c(c1)O[C@H](CN(C)Cc1ccc3c(c1)OCO3)[C@@H](C)CN([C@@H](C)CO)S2(=O)=O`, 21.9% (inactive).
With `COc1ccc(NC(=O)Nc2cccc3c2O[C@@H](CN(C)Cc2ccc(Oc4ccccc4)cc2)[C@@H](C)CN([C@H](C)CO)C3=O)cc1`, the activity change, negative = inhibition is 38.3% (inactive).
On the same count and under the same terms, for `COc1ccc(NC(=O)Nc2ccc3c(c2)[C@H]2C[C@H](CC(=O)NCc4ccccc4F)O[C@@H](CO)[C@H]2O3)cc1` the value was 3.92% (inactive); for `O=C(C[C@H]1C[C@@H]2c3cc(NC(=O)C4CCC4)ccc3O[C@@H]2[C@@H](CO)O1)NCc1ccc(Cl)cc1`, -11.8% (inactive).
The same measure, in the same setting: for `O=C(C[C@H]1C[C@H]2c3cc(NS(=O)(=O)c4ccc(F)cc4)ccc3O[C@H]2[C@H](CO)O1)NCc1ccc(-c2ccccc2)cc1` the value was 17.8% (inactive).
As for `COc1ccc(S(=O)(=O)N(C)C[C@H]2Oc3c(NS(=O)(=O)c4ccccc4)cccc3C(=O)N([C@H](C)CO)C[C@@H]2C)cc1`, the activity change, negative = inhibition is 28% (inactive).
Turning to `COc1ccccc1CNC(=O)C[C@@H]1C[C@@H]2c3cc(NC(=O)NC4CCCC4)ccc3O[C@@H]2[C@@H](CO)O1`, the activity change, negative = inhibition was 2.23% (inactive).
On the same count and under the same terms, for `COc1ccc(CN(C)C[C@@H]2OCCCC[C@H](C)Oc3ccc(NC(=O)Nc4cccc5ccccc45)cc3C(=O)N([C@@H](C)CO)C[C@H]2C)cc1` the value was 42% (inactive).
Turning to `C[C@@H]1CN([C@H](C)CO)S(=O)(=O)c2ccc(C#CC3CCCCC3)cc2O[C@@H]1CN(C)Cc1cccnc1`, the activity change, negative = inhibition was 20.4% (inactive).
Still for that read-out and setting: for `CC(C)CC#Cc1ccc2c(c1)O[C@H](CN(C)Cc1ccccc1F)[C@H](C)CN([C@@H](C)CO)S2(=O)=O` the value was 26.2% (inactive); for `C[C@@H]1CN([C@@H](C)CO)C(=O)Cc2cc(NC(=O)C3CC3)ccc2O[C@@H]1CN(C)Cc1ccc(-c2ccccc2)cc1`, 20.7% (inactive); for `O=C(C[C@H]1C[C@@H]2c3cc(NC(=O)NC4CCCC4)ccc3O[C@@H]2[C@@H](CO)O1)NCc1ccc(Cl)cc1`, 8.51% (inactive).
As to `CC(C)CC#Cc1ccc2c(c1)O[C@@H](CN(C)Cc1ccc3c(c1)OCO3)[C@H](C)CN([C@H](C)CO)S2(=O)=O`, the activity change, negative = inhibition is 17.8% (inactive).

Staying with this assay, now noted: Clostridioides difficile clinical isolate growth, OD600, 24 h; at 135 µM (top of the series).
For the compound `O=C(C[C@H]1C[C@@H]2c3cc(NC(=O)C4CCC4)ccc3O[C@@H]2[C@H](CO)O1)NCc1ccc(Cl)cc1`, the activity change, negative = inhibition was 4.22% (inactive).
Same read-out and setting: to `CO[C@H]1CN(C)C(=O)c2cc(NC(=O)c3nc4ccccc4s3)ccc2OC[C@H](C)NC[C@H]1C` belongs -0.247% (inactive); to `C[C@H]1CN([C@@H](C)CO)C(=O)Cc2cc(NC(=O)C3CC3)ccc2O[C@H]1CN(C)Cc1ccc(Oc2ccccc2)cc1`, 26.6% (inactive).
On to `C[C@@H]1CN([C@H](C)CO)C(=O)Cc2cc(NC(=O)C3CC3)ccc2O[C@@H]1CN(C)Cc1ccc(C(F)(F)F)cc1`, for which the activity change, negative = inhibition is 18% (inactive).
On the same count and under the same terms, for `C[C@@H]1CN([C@H](C)CO)C(=O)Cc2cc(NC(=O)Nc3ccccc3)ccc2O[C@@H]1CN(C)Cc1ccc(-c2ccccc2)cc1` the value was 12.7% (inactive).
